Measurements as given in US12023336B2, “Antiviral drug compounds and composition thereof” (priority 2018, dated 2024).

Assays:
[1] = system: CEM-GFP cells; test: MTT cell viability assay in CEM-GFP cells; format: cell-based; conditions: concentration at which cell viability was 50%
Experimental: (a-b) CEM-GFP cells were treated with different concentrations of MTX-HYD and MTX and cytotoxicity was determined by MTT cell viability assay. […] (c-d) CEM-GFP cells were infected with 0.5 MOI (Multiplicity of infection) of HIV-1NL4.3 virus in presence of MTX-HYD or MTX. 72-hours post infection supernatant was collected and virus production was determined by p24 antigen capture ELISA.
(§1) Cytotoxicity of MTX-HYD and MTX and their analogues was determined by MTT cell proliferation assay kit, (Roche, Germany) as described earlier. Briefly, cells were seeded at the density of 25,000 cells/well in 96 well plate containing 100 μL of RPMI. Molecules at different concentration was added to the media and incubated in humidified CO2 incubator. Untreated cells were taken as negative control and DMSO treated cells were taken as vehicle control. 48-hours post incubation, 10 μL of MTT (5 mg/mL) was added in each well in dark and incubated at 37° C. for the formation of formazan crystals. 4-hours post incubation, the crystals were dissolved using 100 μL isopropanol and the absorbance was read at 570 nm.

[2] = system: HIV-1NL4.3; format: cell-based; conditions: for inhibition of replication of HIV-1NL4.3: CEM-GFP (FIG. 9); for TI (Therapeutic index = CC50/IC50) / therapeutic index compared with MTX-HYD / IC50: CEM-GFP cells; for therapeutic index compared with MTX-HYD: HIV-1NL4.3; for IC50: HIV-1NL4.3 0.5 MOI, p24 ELISA 72 h post infection
Experimental: Cells were then treated with molecules at different concentrations.

[3] = system: different isolates of HIV-1; test: Anti-HIV activity against different isolates of HIV-1 in CEM-GFP cells and hPBMCs, p24 ELISA; format: cell-based
Experimental: (§2) Cells were then treated with molecules at different concentrations. Untreated cells were taken as negative control and DMSO treated cells were taken as vehicle control.

[4] = system: HIV-1NL4.3
Experimental: 72-hours post infection supernatant was collected and virus production was determined by p24 antigen capture ELISA.
as §1, §2

[5] = system: HIV-1NL4.3; test: microbe, parasite or virus in culture; format: cell-based; conditions: Human immunodeficiency virus 1; 10 μM; HIV-1NL4.3 0.1 MOI; TZM-bl cells; luminescence 48 h; read-out: % Inhibition at 10 μM Concentration
Experimental: TZM-bl cells were seeded at the density of 12,000-15,000 cells/well of 96 well plate with 100 μL DMEM (with 10% FBS) in each well. 12-hours post seeding, the media was replaced with fresh DMEM containing HTV-1NL4.3 at 0.1 MOI and cells were treated with different molecules independently at 10 μM working concentration. Cells were incubated in humidified CO2 incubator for 4-hours. After incubation, the media was replaced and cells were washed twice with incomplete DMEM and 100 μL of complete DMEM was added in each wells along with the molecules of interest and incubated at 37° C. in humidified CO2 incubator. 48-hours post incubation, the media was removed and cells were washed twice with 100 μL of 1×PBS. After washing, cells were lysed using cell culture lysis reagent and Steady-Glo substrate was added at 1:1 ration in each well. Luminescence was measured using Molecular Devices M5 (Table 2). % Inhibition was calculated using following formula and plotted.
[formula] (RLU=Relative Luminescence Unit)

[6] = MTT cytotoxicity in different cell types (CEM-GFP, Jurkat J6, U937, hPBMCs); format: cell-based; conditions: human; all the cell types tested (CEM-GFP, Jurkat J6, U937, hPBMCs)
Excerpt: FIG. 2. depicts that MTX-HYD has similar cytotoxicity profile in different cell types. […] Untreated and DMSO treated cells were taken as controls.

[7] = molecular target: T1, HIV-1 reverse transcriptase (Human immunodeficiency virus type 1 group M subtype B, UniProt P04585); test: RNA dependent DNA polymerase activity assay of HIV-1 RT (RDDP assay); format: biochemical; conditions: 100 nM; cell free
T1 construct: recombinant HIV-1 reverse transcriptase enzyme; purchased Roche, Germany
Experimental: (§3) MTX-HYD (100 nM) was tested on viral enzymes Reverse Transcriptase (a), Integrase (b) and Protease (c) in an in vitro cell free assay system. Nevirapine (NVP) (500 nM), Raltegravir (RLT) (1 μM), and Indinavir (IND) (500 nM) were used as the control inhibitors of RT, IN, and PR respectively. Untreated wells (UNT) were considered as negative controls. […] 72-hours post-infection virus production was determined in supernatant by p24 antigen capture ELISA (n=3).
Effect of MTX-HYD and MTX on RNA dependent DNA polymerase activity of HIV-1 RT enzyme was tested with HIV-1 reverse transcriptase colorimetric assay kit (Roche, Germany) according to manufacturer's protocol. Briefly, 0.5 ng of recombinant HIV-1 reverse transcriptase enzyme in reaction buffer in presence or absence of MTX-HYD were incubated at room temperature for 5-10 min. Nevirapine (500 nM) treated wells were taken as positive control whereas untreated wells were taken as negative control and DMSO treated wells were taken as vehicle control. The reaction mixture containing Poly rA/OligodT (template/primers) and biotin or digoxigenin labelled dUTP nucleotide mixture was added to initiate the reverse transcription at 37° C. for 12-16 hours. […] ABTS substrate was then added to observe the colour reaction, which was read at 405 nm.

[8] = molecular target: T2, HIV-1 integrase (Human immunodeficiency virus type 1 group M subtype B, UniProt P04585); test: Cell free assay for HIV-1 Integrase activity; format: biochemical; conditions: 100 nM
T2 construct: HIV-1 integrase enzyme; purchased XpressBio, USA
Experimental: as §3
MTX-HYD was tested for its effect, if any, on HIV-1 Integrase enzyme using HIV-1 integrase assay kit (XpressBio, USA) according to manufacturer's protocol. Briefly, biotin coated 5′ Donor Strand (DS) was loaded on to streptavidin coated wells and incubated at 37° C. 30-minutes post incubation, wells were washed and unattached DS was removed. After washing, HIV-1 integrase enzyme and Transfer Strand (TS) were added to the wells in presence of MTX-HYD and incubated at 37° C. Raltegravir treated wells were taken as positive controls whereas untreated wells were taken as negative control and DMSO treated wells were taken as vehicle control. 30-minutes post incubation, wells were washed and 100 μL/well TMB substrate was added and incubated for […] at room temperature. 100 μL/well TMB stop solution was added and absorbance was measured at 450 nm.

[9] = molecular target: T3, HIV-1 protease (Human immunodeficiency virus type 1 group M subtype B, UniProt P04585); test: Cell free assay for HIV-1 Protease activity; format: biochemical; conditions: 100 nM
T3 construct: HIV-1 protease enzyme; purchased Biovision, USA
Experimental: as §3
Effect of MTX-HYD on HIV-1 Protease enzyme was determined using HIV-1 Protease Activity Assay Kit, Fluorometric (Biovision, USA) according to manufacturer's protocol. Briefly, in a single step reaction, HIV-1 protease enzyme was diluted in reaction buffer and 10 nmol/well was loaded in 96 well plate in presence or absence of MTX-HYD (100 nM). Indinavir (IND) (500 nM) treated wells were taken as positive control and untreated wells were considered as negative control. 15-minutes post addition, Fluorescence was measured using Molecular Devices M5 at Ex/Em=330/450 nm (FIG. 6).

[10] = system: NF-kB pathway; test: Immunoblotting of IkB phosphorylation and p65 in HIV-1NL4.3 infected CEM-GFP cells; format: cell-based; conditions: 100 nM, 24, 48, 72 h post infection
Experimental: (a) CEM-GFP cells were infected with 0.5 MOI of HIV-1NL4.3 in presence or absence of MTX-HYD (100 nM). Cells were harvested at different time points (24 h, 48 h and 72 h) post-infection. Phosphorylation of IxB was analysed by immunoblotting. (c) CEM-GFP cells were infected with 0.5MOI of HIV-1NL4.3 in presence or absence of MTX-HYD (100 nM) and nuclear cytoplasmic fractions were prepared using NE-PER nuclear-cytoplasmic fractionation kit. p65 levels in both cytoplasm and nucleus were analyzed by immunoblotting. (b and d) Densitometric analysis of immunoblots using QuantityOne software (n=3).

## COC(=O)CC[C@H](NC(=O)c1ccc(N(C)Cc2cnc3nc(N)nc(N)c3n2)cc1)C(=O)OC [MTX Dimethyl Ester]
[1]
  CC50: 54.3 ± 3.78 µM
[2]; 100 nM
  inhibition of replication of HIV-1NL4.3: inhibits replication of HIV-1NL4.3
[2]
  TI (Therapeutic index = CC50/IC50): 1675.3
  therapeutic index compared with MTX-HYD: higher therapeutic index than MTX-HYD
  IC50: 0.0324 ± 0.00087 µM

## [2H]C([2H])([2H])N(Cc1cnc2nc(N)nc(N)c2n1)c1ccc(C(=O)N[C@@H](CCC(=O)O)C(=O)O)cc1 [MTX-methyl-d3]
[2]; 100 nM
  inhibition of replication of HIV-1NL4.3: inhibits replication of HIV-1NL4.3

## CN(Cc1cnc2nc(N)nc(N)c2n1)c1ccc(C(=O)N[C@@H](CCC(=O)N[C@@H](CCC(=O)N[C@@H](CCC(=O)N[C@@H](CCC(=O)N[C@@H](CCC(=O)N[C@@H](CCC(=O)N[C@@H](CCC(=O)O)C(=O)O)C(=O)O)C(=O)O)C(=O)O)C(=O)O)C(=O)O)C(=O)O)cc1 [MTX heptaglutamate]
[1]
  CC50: 39.9 ± 1 µM
[2]
  TI (Therapeutic index = CC50/IC50): 541.87
  IC50: 0.0737 ± 0.00165 µM

## MTX-d3 heptaglutamate
[1]
  CC50: 40.5 ± 3.43 µM
[2]
  IC50: 0.0779 ± 0.00242 µM

## CN(Cc1cnc2nc(N)nc(N)c2n1)c1ccc(C(=O)N[C@@H](CCC(=O)O)C(=O)O)cc1 [MTX-methyl-d3]
[1]
  CC50: 46.4 ± 1.08 µM
[2]
  IC50: 0.0421 ± 0.00384 µM

## [2H]C([2H])([2H])N(Cc1cnc2nc(N)nc(N)c2n1)c1ccc(C(=O)NC(CCC(=O)OC)C(=O)OC)cc1 (stereo not shown) [MTX-methyl-d3-Dimethyl Ester, Methotrexate-methyl-d3-Dimethyl ester]
[2]; 100 nM
  inhibition of replication of HIV-1NL4.3: inhibits replication of HIV-1NL4.3
[2]
  TI (Therapeutic index = CC50/IC50): 4781.81
  therapeutic index compared with MTX-HYD: higher therapeutic index than MTX-HYD
[3]; 25 nM, 0.5 MOI of different isolates
  anti-HIV activity across virus isolates: not virus isolate specific phenomena
[3]; HIV-1IndieC, HIV-1IIIB, HIV-1ADA, HIV-189.6
  Therapeutic Index compared with MTX-HYD, other virus isolates: higher Therapeutic Index (TI) than Methotrexate Hydrate (MTX-HYD)
[4]; HIV-1NL4.3 0.5 MOI
  therapeutic index (TI) in hPBMCs: significantly high therapeutic index (TI)
[4]; hPBMCs
  inhibition of HIV-1NL4.3 replication in primary cells: with high efficiency

## CN(Cc1cnc2nc(N)nc(N)c2n1)c1ccc(C(=O)N[C@@H](CCC(=O)O)C(=O)O)cc1 [Methotrexate Hydrate]
[5]
  inhibition at 10 µM: 98.5%
[2]; 100 nM, treated at different stages of virus infection, CEM-GFP
  stage of virus life cycle at which it acts: works at an early stage of the life cycle
[2]; versus MTX (FIG. 1)
  anti-HIV potential better than MTX: ~10 fold
[6]
  CC50 at 48 h: 50 to 75 µM
[7]
  effect on Reverse Transcriptase: does not target viral enzymes
[8]
  effect on Integrase: does not target viral enzymes
[9]
  effect on Protease: does not target viral enzymes
[10]
  IkB phosphorylation: may inhibit IkB phosphorylation
[3]; 0.5 MOI of different isolates, 0.01, 0.1 and 1 MOI of HIV-1NL4.3
  anti-HIV activity across virus isolates and viral loads: not virus isolate and viral load dependent phenomena

## COC(=O)CCC(NC(=O)c1ccc(N(C)Cc2cnc3nc(N)nc(N)c3n2)cc1)C(=O)OC (stereo not shown) [MTX-methyl-d3-Dimethyl Ester, Methotrexate-methyl-d3-Dimethyl ester]
[1]
  CC50: 47.3 ± 1.51 µM
[2]
  IC50: 0.0099 ± 0.00151 µM
